Assay results reported in patent publication US20060194971A1, “Anethole dithiolethione and other dithiolethiones for the treatment of conditions associated with dysfunction of monoamine neruotransmission” (priority 2005, published 2006).
Like-named read-outs stand apart in the source and are kept apart here.

Legend:
[1] = biological target: T1, monoamine oxidase A (MAO-A) (Rattus norvegicus, UniProt P21396); conditions: upon selective and complete blockade of MAO-B activity with deprenyl
T1 sequence (P21396 1-526): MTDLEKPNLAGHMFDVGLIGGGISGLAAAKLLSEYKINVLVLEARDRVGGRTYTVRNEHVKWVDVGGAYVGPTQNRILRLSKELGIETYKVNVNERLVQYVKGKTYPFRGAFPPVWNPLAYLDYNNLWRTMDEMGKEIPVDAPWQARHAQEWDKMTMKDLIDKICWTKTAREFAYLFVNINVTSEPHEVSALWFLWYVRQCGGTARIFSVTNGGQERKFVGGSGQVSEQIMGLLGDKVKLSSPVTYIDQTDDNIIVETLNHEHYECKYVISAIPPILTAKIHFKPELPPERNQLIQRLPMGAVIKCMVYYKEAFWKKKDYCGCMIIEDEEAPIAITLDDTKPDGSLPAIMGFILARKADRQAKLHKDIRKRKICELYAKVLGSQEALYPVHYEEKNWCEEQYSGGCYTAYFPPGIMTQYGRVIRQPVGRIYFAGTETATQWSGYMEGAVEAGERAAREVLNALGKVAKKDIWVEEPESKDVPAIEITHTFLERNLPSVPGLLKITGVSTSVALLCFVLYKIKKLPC
Method: (§1) Neonatal rat striatal astroglial cells were used as a source for both MAO-A and MAO-B activity (Carlo et al., Brain Res 711, 175-183, 1996). Astroglial cells were cultured as described (Langeveld et al., Neurosci. Lett. 192, 13-16, 1995). Following one week in culture in 5% CO2/95% air and at 37° C., cells were trypsinized and sonicated in ice cold 25 mM Tris-HCl buffer (pH 7.4) containing 1 mM EDTA. Thereafter, the obtained lysates were centrifuged for 5 min at 1 0,000 g and 4° C., and aliquots of the supernatant fractions were taken for determination of MAO activity using the Amplex Red MAO assay kit (Molecular Probes, Leiden, The Netherlands), which is based on the method described by Zhou and Panchuk-Voloshina (Anal. Biochem. 253, 169-174, 1997). Measurements were performed according to the manufacturers instructions. Briefly, prior to addition of the substrate, the samples were incubated for 30 min in a 96 well plate with drugs or solvent (total volume of 50 μl). Thereafter, 50 μl Amplex Red reagent was added containing 2 U/ml horseradisch peroxidase (HRP), p-tyramine HCl (2 mM, substrate for both MAO A and MAO B (Youdim and Finberg, Biochem. Pharmacol., 41, 155-162, 1991) and Amplex red (10 mM). Under these circumstances, via MAO-catalyzed oxidation of tyramine in a HRP-coupled reaction, Amplex red is converted to fluorescent resorufin. To measure MAO activity, the time-dependent increase in resorufin formation was determined at 2 min time intervals for 30 min at room temperature in a fluorescence microplate reader (BMG Labtechnologies GmbH, Germany), using excitation at 544 nm and emission at 595 nm. […] For calculation of results, the data were corrected for background readings (i.e., in the absence of the MAO substrate tyramine), and expressed as the increase in arbitrary fluorescence units/min. Protein content was determined according to the method of Bradford et al., (Anal. Biochem. 72, 248-254, 1976), using BSA as a standard. Statistical comparisons between groups were made using a one-way analysis of variance (ANOVA) followed by a Newman-Keuls post-hoc test. P values <0.01 were considered significant.
(§2) MAO activity and effects of the drugs thereon were determined as detailed above.
(§3) Data are expressed as percentages of respective controls, and are averages of two till five independent experiments performed in triplicate.

[2] = tested on: total monoamine oxidase (Σ MAO); conditions: for Σ MAO activity (% inhibition): solvent 0.03% DMSO only, neonatal rat striatal astroglial cell extracts
Method: as §1, §2, §3

[3] = biological target: T2, monoamine oxidase-B (MAO-B) (Rattus norvegicus, UniProt P19643); assay: MAO-B activity in astroglial cell extracts in the presence of clorgyline, Amplex Red MAO assay; assay type: biochemical
T2 construct: in cellular extracts obtained from cultures of neonatal rat striatal astroglial cells; endogenous in cells; host or cells: cultured neonatal rat striatal astroglial cells (supernatant of sonicated lysate)
T2 sequence (P19643 1-520): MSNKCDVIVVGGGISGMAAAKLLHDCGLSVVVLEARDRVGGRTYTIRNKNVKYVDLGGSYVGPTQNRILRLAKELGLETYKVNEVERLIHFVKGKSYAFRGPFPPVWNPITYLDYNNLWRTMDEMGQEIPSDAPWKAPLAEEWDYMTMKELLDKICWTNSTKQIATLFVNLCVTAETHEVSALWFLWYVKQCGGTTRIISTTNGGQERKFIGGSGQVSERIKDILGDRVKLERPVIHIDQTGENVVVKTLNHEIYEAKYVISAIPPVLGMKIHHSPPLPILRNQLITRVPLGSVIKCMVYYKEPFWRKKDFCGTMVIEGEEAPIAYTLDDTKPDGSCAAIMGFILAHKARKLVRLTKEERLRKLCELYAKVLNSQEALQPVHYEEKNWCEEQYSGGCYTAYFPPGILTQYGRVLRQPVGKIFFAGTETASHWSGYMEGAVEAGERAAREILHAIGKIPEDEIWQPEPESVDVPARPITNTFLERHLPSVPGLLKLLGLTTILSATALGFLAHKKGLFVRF
Method: as §1, §2, §3

MAO-B = MAO-B inhibitory activity measured at CEREP (protocol of Salach); assay type: biochemical
Method: MAO-B inhibitory activity of the compounds A1-D6 were measured at CEREP (Paris, France), according to the protocol described by J. L. Salach, Arch. Biochem. Biophys., 192, 128,1979.
MAO-B inhibitory activity of the compounds A1-D6 AS measured at CEREP (Paris, France), according to the protocol described by J. L. Salach, Arch. Biochem. Biophys., 192, 128, 1979.

[4] = read-out: MAO-B activity (% inhibition)

In the case of COc1ccc(-c2cc(=S)ss2)cc1 [ADT, 5-(p-methoxyphenyl)-3H-1,2-dithiole-3-thione], the “effect on MAO-A activity” value [1] is reported as “no statistically significant effect”, the “Σ MAO activity (% inhibition)” value ([2]; 0.1 μM) is reported as 14% and the “Σ MAO activity (% inhibition)” value ([2]; 0.3 μM) is reported as 35%. For the same compound, the “Σ MAO activity (% inhibition)” value ([2]; 1 μM) was 60%, the “Σ MAO activity (% inhibition)” value ([2]; 3 μM) was 70% and the “Σ MAO activity (% inhibition)” value ([2]; 10 μM) was 81%. The “Σ MAO activity (% inhibition)” value ([2]; 30 μM) was 85%, the “maximal effect on total MAO activity (inhibition)” value ([2]; at a concentration of 30 μM) was about 80% and the IC50 ([2]; read-out: apparent IC50, inhibition of total astroglial MAO activity, substrate tyramine, astroglial cell extracts) was about 0.5 µM. For the same compound, the “concentration-effect relationship for MAO-B compared to inhibition of total MAO activity” value ([3]; following selective and complete blockade of MAO-A activity by clorgyline) was “identical concentration-effect relationships”, the inhibition at 0.03 µM [3, 4] was 0% and the inhibition at 0.1 µM [3, 4] was 15%. It also gave an inhibition at 0.3 µM [3, 4] of 40%, an inhibition at 1 µM [3, 4] of 73% and an inhibition at 3 µM [3, 4] of 89%. The inhibition at 10 µM [3, 4] was 96% and the inhibition at 30 µM [3, 4] was 100%.

For CCCCCCOc1ccc(-c2cssc2=S)cc1 [Compound A1], the “MAO-B %-inhibition at 10^−5 M” value (MAO-B) was 100% and the melting point was 121 °C.

In the case of S=c1ssc(N2CCN(c3cccc4c3OCCO4)CC2)c1-c1ccccc1 [Compound B1], the “MAO-B %-inhibition at 10^−5 M” value (MAO-B) is reported as 65%.

For Cc1ccc(-c2c(N3CCN(c4ccccc4)CC3)ssc2=S)cc1 [Compound B3], the “MAO-B %-inhibition at 10^−5 M” value (MAO-B) was 54%.

With CCN(CC)c1ccc(C=Cc2cc(=S)ss2)cc1 [Compound C1] the “MAO-B %-inhibition at 10^−5 M” value (MAO-B) was 52%.

With S=c1cc(C=Cc2ccc3ccccc3n2)ss1 [Compound C2] the “MAO-B %-inhibition at 10^−5 M” value (MAO-B) was 56%.

In the case of S=c1ccss1 [Compound D3T, 3H-1,2-dithiole-3-thione], the “maximally effective concentration, blockade of MAO-B activity” value ([3]; in the presence of clorgyline) is reported as 300 µM, the inhibition at 1 µM [3, 4] is reported as 2% and the inhibition at 3 µM [3, 4] is reported as 6%. It also gave an inhibition at 10 µM [3, 4] of 24%, an inhibition at 30 µM [3, 4] of 59% and an inhibition at 100 µM [3, 4] of 82%. The inhibition at 300 µM [3, 4] was 92%, the inhibition at 1000 µM [3, 4] was 91% and the IC50 ([3]; read-out: apparent IC50, blockade of MAO-B activity) was about 20 µM.
